Data reported in patent publication US8993595B2, “Macrocyclic serine protease inhibitors” (priority 2009, dated 2015).
Where two headings read alike, the source gives them in different places.

Experiments:
[1] = system: H1a-luc cell line (genotype 1a replicon, unselected); test: Extent of resistance after selection, H1a-luc; format: cell-based, HCV; conditions: selecting conc. 0 nM
Method: (§1) Replicon cells (genotype 1a or 1b) were treated with various concentrations of compound 52 in the presence of G418. Treatment-emergent genotypic changes were identified by population sequencing of NS3 (both protease and helicase regions). The activity of compound 52 and other compounds was evaluated by NS5A western blot after selection or luciferase assay during and after selection.

clinical = conditions: human, in vivo; for Cmax / Tmax: 400 mg per day; for half-life: T1/2, 400 mg per day
[2] = system: central nervous, renal, and gastrointestinal systems of mice; parameters: species or system CD-1 mouse; conditions: mouse, in vivo
Excerpt: One in vitro GLP safety pharmacology study evaluated the effects of compound 52 on hERG channel currents in voltage-clamped human embryonic kidney cells (HEK293) stably expressing the human ether-à-go-go-related gene (hERG) channel. Four in vivo GLP safety pharmacology studies evaluated the potential effects of the compound on the cardiovascular and respiratory systems in the cynomolgus monkey and on the central nervous, renal, and gastrointestinal systems in the CD-1 mouse at single oral doses up to 250 mg/kg of compound 52.

human CYP450 3A4 = target: T1, human CYP450 3A4 (Homo sapiens, UniProt P08684); test: CYP450 inhibition assay, 3A4; format: in vitro ADME
T1 construct: purchased BD Bioscience
Method: (§2) Compound 52 was incubated with human CYP450 cDNA-expressed isoenzymes according to the protocol (BD Bioscience). For CYP2C9, a luminogenic substrate was used with the P450-Glo™ kit. In addition, the effect of the compound on CYP2C9-mediated diclofenac metabolism was measured by LC-UV. The potential inhibitory effect of the compound on human UGT1A1 was examined using human liver microsomes and bilirubin as substrate. The metabolites (mono- and di-glucuronidated bilirubin) were measured by LC-UV.

[3] = target: T2, HCV NS3-4A Protease Genotype 1a (Hepatitis C virus genotype 1a, UniProt P27958); test: HCV protease assay, recombinant NS3-4A genotype 1a; format: biochemical; conditions: mean ± SD, 3 experiments
T2 construct: recombinant HCV NS3-4A proteases
Method: The compounds were tested at a variety of concentrations in assay buffer containing a final DMSO concentration of 5%. Reactions were allowed to proceed for 60 min at room temperature and fluorescence measurements were recorded with a Tecan Infinity Spectrofluorimeter. The IC50 values were determined from the percent inhibition versus concentration data using a sigmoidal non-linear regression analysis based on four parameters with Tecan Magellan software.
Compound 52 was tested against genotypes 1a, 1b, 2a, 3a, and 4a of recombinant HCV NS3-4A proteases, along with other cellular proteases.

[4] = system: ZlucA cell line (genotype 1b replicon selected with 10 nM compound 52, D168V); test: Extent of resistance after selection, luciferase assay, ZlucA; format: cell-based, HCV; conditions: selecting conc. 10 nM, EC50 resistant / EC50 wild-type
Method: as §1
Eight drug-resistance replicon cell lines were created by long-term culture of genotype 1b replicon cells with 10 or 25 nM of compound 52. NS3 (AAs 1-631) was sequenced at each passage.

[5] = Cytotoxicity in parallel, colorimetric proliferation assay, 1b replicon cells; format: cell-based; conditions: human, replicon cells (genotype 1b)
[6] = 400 mg per day
[7] = system: C-1a cell line (genotype 1a replicon selected with 25 nM, D168A); test: Extent of resistance after selection, C-1a; format: cell-based, HCV; conditions: selecting conc. 25 nM
Method: as §1

[8] = monkey plasma
[9] = system: replicon bearing NS5B Mutation C316Y
Method: (§3) The activity of compound 52 was evaluated against replicons bearing single protease inhibitor-resistance mutations as compared to its activity against the wild-type replicon. Mutations were introduced into a genotype 1b luciferase-replicon by site-directed mutagenesis. Compound activity was measured in cells transiently transfected with in vitro transcribed wild-type or mutant luciferase-replicon RNA by luciferase assay after 4-day treatment. Replication capacity was determined in untreated transfected cells by comparing the luciferase activity at 4 hrs and 4 days post-transfection.
(§4) The activity of compound 52 was also tested against replicons bearing a single polymerase inhibitor-resistance mutation. Each mutation confers resistance to a known polymerase inhibitor as reported in the literature.

[10] = system: replicon bearing NS5B Mutation C445F
Method: as §3, §4

[11] = system: replicon bearing NS5B Mutation Y448H
Method: as §3, §4

[12] = system: replicon bearing NS5B Mutation C445Y
Method: as §3, §4

[13] = system: replicon bearing NS5B Mutation M423T
Method: as §3, §4

[14] = system: replicon bearing NS5B Mutation S282T
Method: as §3, §4

[15] = system: replicon bearing NS5B Mutation M414T
Method: as §3, §4

[16] = system: A-1a cell line (genotype 1a replicon selected with 10 nM, D168A); test: Extent of resistance after selection, A-1a; format: cell-based, HCV; conditions: selecting conc. 10 nM
Method: as §1

human CYP450 2B6 = target: T3, human CYP450 2B6 (Homo sapiens, UniProt P20813); test: CYP450 inhibition assay, 2B6; format: in vitro ADME
T3 construct: purchased BD Bioscience
Method: as §2

human CYP450 1A2 = target: T4, human CYP450 1A2 (Homo sapiens, UniProt P05177); test: CYP450 inhibition assay, 1A2; format: in vitro ADME
T4 construct: purchased BD Bioscience
Method: as §2

COc1ccc2c(O[C@H]3CCN4C(=O)N(C)CCCC/C=C\[C@@H]5C[C@@]5(C(=O)NS(=O)(=O)C5(C)CC5)NC(=O)[C@@H]4C3)cc(-c3nc(C(F)(F)F)cs3)nc2c1C [Compound 52, 1-methyl-cyclopropanesulfonic acid{(Z)-(1S,4R,6S,18S)-18-[7-methoxy-8-methyl-2-(4-trifluoromethyl-thiazol-2-yl)-quinolin-4-yloxy]-13-methyl-2,14-dioxo-3,13,15-triaza-tricyclo[13.4.0.0*4,6*]nonadec-7-ene-4-carbonyl}amide]
Fold-Change [1]: 1
Cmax (clinical; PK Day 1): 1150 ± 381 ng/mL
Cmax (clinical; PK Day 3): 1370 ± 345 ng/mL
half-life (clinical; PK Day 1): 12 ± 2 h
half-life (clinical; PK Day 3): 31 ± 8 h
Tmax (clinical; PK Day 1): 3 h
Tmax (clinical; PK Day 3): 3.5 h
effects on the central nervous system, renal function, or gastrointestinal motility [2]: no effects
IC50 (human CYP450 3A4): ≥ 10 µM
IC50 [3]: 0.0011 ± 0.0001 µM
Fold-Change [4]: 250 ± 66
CC50 at 5 days [5]: 25.2 ± 5.3 µM
C24 hr ([6]; PK Day 1): 117 ± 53 ng/mL
C24 hr ([6]; PK Day 2): 165 ± 87 ng/mL
C24 hr ([6]; PK Day 3): 197 ± 112 ng/mL
Fold-Change [7]: 900 ± 64
protein bound in plasma [8]: 99.9%
Fold-Change [9]: 1.7 ± 0.6
Fold-Change [10]: 0.9 ± 0.07
Fold-Change [11]: 1.7 ± 0.4
Fold-Change [12]: 0.9 ± 0.07
Fold-Change [13]: 0.9 ± 0.08
Fold-Change [14]: 1.4 ± 0.6
Fold-Change [15]: 1.6 ± 0.5
Fold-Change [16]: 589 ± 442
IC50 (human CYP450 2B6): ≥ 10 µM
IC50 (human CYP450 1A2): ≥ 10 µM
